Assay results reported in ChEMBL document CHEMBL4219219, “The synthesis and antistaphylococcal activity of N-sulfonaminoethyloxime derivatives of dehydroabietic acid” (Bioorg Med Chem Lett, 2018).
Values after ≈ are worked out from the molar mass of the structure shown. Active and inactive are the calls of the source. The calls are words filed in the database; no cut-off is given here.

Legend:
Staphylococcus aureus [1] = experiment: Antistaphylococcal activity against erythromycin-resistant Staphylococcus aureus NRS-70 after 18 hrs by two-fold serial dilution method; type: functional; details: NRS-70, 18 h
Escherichia coli = experiment: Antibacterial activity against Escherichia coli AB1157 at 50 ug/ml after 18 hrs by two-fold serial dilution method; type: functional, organism-based
Staphylococcus aureus [2] = experiment: Antistaphylococcal activity against gentamicin-resistant Staphylococcus aureus NRS-108 after 18 hrs by two-fold serial dilution method; type: functional; details: NRS-108, 18 h
Staphylococcus aureus [3] = experiment: Antistaphylococcal activity against Staphylococcus aureus Newman after 18 hrs by two-fold serial dilution method; type: functional
Staphylococcus aureus [4] = experiment: Antistaphylococcal activity against linezolid-resistant Staphylococcus aureus NRS-271 containing phage type E-MRSA 15 after 18 hrs by two-fold serial dilution method; type: functional; details: NRS-271, 18 h
Staphylococcus aureus [5] = experiment: Antistaphylococcal activity against aminoglycosides/tetracycline-resistant Staphylococcus aureus NRS-1 after 18 hrs by two-fold serial dilution method; type: functional; details: NRS-1, 18 h
Staphylococcus aureus [6] = experiment: Antistaphylococcal activity against oxacillin/tetracycline-resistant Staphylococcus aureus NRS-100 after 18 hrs by two-fold serial dilution method; type: functional; details: NRS-100, 18 h

| SMILES | MIC (Staphylococcus aureus [1]) [µg/mL] | Activity (Escherichia coli) | MIC (Staphylococcus aureus [2]) [µg/mL] | MIC (Staphylococcus aureus [3]) [µg/mL] | MIC (Staphylococcus aureus [4]) [µg/mL] | MIC (Staphylococcus aureus [5]) [µg/mL] | MIC (Staphylococcus aureus [6]) [µg/mL] |
| --- | --- | --- | --- | --- | --- | --- | --- |
| CC(C)c1cc2c(cc1Br)[C@@]1(C)CCC[C@@](C)(C(=O)O)[C@@H]1C/C2=N\OCCNS(=O)(=O)c1ccc(Cl)c(C(F)(F)F)c1 | 0.78 to 1.56 (≈ 1.12 to 2.25 µM) | inactive | 0.78 to 1.56 (≈ 1.12 to 2.25 µM) | 0.78 to 1.56 (≈ 1.12 to 2.25 µM) | 25 to 50 (≈ 36 to 72 µM) | 12.5 to 25 (≈ 18 to 36 µM) | > 50 |
| CC(C)c1cc2c(cc1Br)[C@@]1(C)CCC[C@@](C)(C(=O)O)[C@@H]1C/C2=N\OCCNS(=O)(=O)c1ccccc1Cl | 0.78 to 1.56 (≈ 1.25 to 2.49 µM) | inactive | 1.56 to 3.13 (≈ 2.49 to 5 µM) | 0.78 to 1.56 (≈ 1.25 to 2.49 µM) | 1.56 to 3.13 (≈ 2.49 to 5 µM) | 1.56 to 3.13 (≈ 2.49 to 5 µM) | 1.56 to 3.13 (≈ 2.49 to 5 µM) |
| CC(C)c1cc2c(cc1Br)[C@@]1(C)CCC[C@@](C)(C(=O)O)[C@@H]1C/C2=N\OCCNS(=O)(=O)c1cc(C(F)(F)F)cc(C(F)(F)F)c1 | 0.78 to 1.56 (≈ 1.07 to 2.14 µM) | inactive | 0.78 to 1.56 (≈ 1.07 to 2.14 µM) | 0.78 to 1.56 (≈ 1.07 to 2.14 µM) | > 50 | > 50 | > 50 |
| CC(C)c1cc2c(cc1Br)[C@@]1(C)CCC[C@@](C)(C(=O)O)[C@@H]1C/C2=N\OCCNS(=O)(=O)c1ccccc1F | 1.56 to 3.13 (≈ 2.56 to 5.13 µM) | inactive | 3.13 to 6.25 (≈ 5.13 to 10.3 µM) | 1.56 to 3.13 (≈ 2.56 to 5.13 µM) | 1.56 to 3.13 (≈ 2.56 to 5.13 µM) | 1.56 to 3.13 (≈ 2.56 to 5.13 µM) | 3.13 to 6.25 (≈ 5.13 to 10.3 µM) |
| CCS(=O)(=O)NCCO/N=C1\C[C@H]2[C@](C)(C(=O)O)CCC[C@]2(C)c2cc(Br)c(C(C)C)cc21 |  | inactive |  | 12.5 to 25 (≈ 23 to 46 µM) |  |  |  |
| CC(C)c1cc2c(cc1Br)[C@@]1(C)CCC[C@@](C)(C(=O)O)[C@@H]1C/C2=N\OCCNS(=O)(=O)c1cccnc1 |  | inactive |  | 3.13 to 6.25 (≈ 5.28 to 10.5 µM) |  |  |  |
| CC(C)c1cc2c(cc1Br)[C@@]1(C)CCC[C@@](C)(C(=O)O)[C@@H]1C/C2=N\OCCNS(=O)(=O)c1cccs1 |  | inactive |  |  |  |  |  |
| CC(C)c1cc2c(cc1Br)[C@@]1(C)CCC[C@@](C)(C(=O)O)[C@@H]1C/C2=N\OCCNS(=O)(=O)c1cc(F)c(F)c(F)c1 |  | inactive |  | > 50 |  |  |  |
| CC(C)c1cc2c(cc1Br)[C@@]1(C)CCC[C@@](C)(C(=O)O)[C@@H]1C/C2=N\OCCNS(=O)(=O)c1c(F)cccc1F |  | inactive |  | > 50 |  |  |  |
| CC(C)c1cc2c(cc1Br)[C@@]1(C)CCC[C@@](C)(C(=O)O)[C@@H]1C/C2=N\OCCNS(=O)(=O)c1ccc(C(C)(C)C)cc1 |  | inactive |  | 3.13 to 6.25 (≈ 4.83 to 9.65 µM) |  |  |  |
| Cc1ccc(C)c(S(=O)(=O)NCCO/N=C2\C[C@H]3[C@](C)(C(=O)O)CCC[C@]3(C)c3cc(Br)c(C(C)C)cc32)c1 | 0.78 to 1.56 (≈ 1.26 to 2.52 µM) | inactive | 1.56 to 3.13 (≈ 2.52 to 5.05 µM) | 1.56 to 3.13 (≈ 2.52 to 5.05 µM) | 3.13 to 6.25 (≈ 5.05 to 10.1 µM) | 3.13 to 6.25 (≈ 5.05 to 10.1 µM) | 1.56 to 3.13 (≈ 2.52 to 5.05 µM) |
| CC(C)c1cc2c(cc1Br)[C@@]1(C)CCC[C@@](C)(C(=O)O)[C@@H]1C/C2=N\OCCNS(=O)(=O)c1ccc(Cl)cc1Cl | 0.39 to 0.78 (≈ 0.59 to 1.18 µM) | inactive | 0.78 to 1.56 (≈ 1.18 to 2.36 µM) | 0.78 to 1.56 (≈ 1.18 to 2.36 µM) | 0.78 to 1.56 (≈ 1.18 to 2.36 µM) | 0.78 to 1.56 (≈ 1.18 to 2.36 µM) | 0.78 to 1.56 (≈ 1.18 to 2.36 µM) |
| CC(C)c1cc2c(cc1Br)[C@@]1(C)CCC[C@@](C)(C(=O)O)[C@@H]1C/C2=N\OCCNS(=O)(=O)c1ccc(Cl)nc1 |  | inactive |  | 3.13 to 6.25 (≈ 4.99 to 9.97 µM) |  |  |  |
| CC(C)c1cc2c(cc1Br)[C@@]1(C)CCC[C@@](C)(C(=O)O)[C@@H]1C/C2=N\OCCNS(=O)(=O)c1ccc(Cl)cc1 | 0.78 to 1.56 (≈ 1.25 to 2.49 µM) | inactive | 1.56 to 3.13 (≈ 2.49 to 5 µM) | 0.78 to 1.56 (≈ 1.25 to 2.49 µM) | 1.56 to 3.13 (≈ 2.49 to 5 µM) | 1.56 to 3.13 (≈ 2.49 to 5 µM) | 1.56 to 3.13 (≈ 2.49 to 5 µM) |
| CC(C)c1cc2c(cc1Br)[C@@]1(C)CCC[C@@](C)(C(=O)O)[C@@H]1C/C2=N\OCCNS(=O)(=O)c1ccccc1 | 0.78 to 1.56 (≈ 1.32 to 2.64 µM) | inactive | 1.56 to 3.13 (≈ 2.64 to 5.29 µM) | 1.56 to 3.13 (≈ 2.64 to 5.29 µM) | 1.56 to 3.13 (≈ 2.64 to 5.29 µM) | 1.56 to 3.13 (≈ 2.64 to 5.29 µM) | 1.56 to 3.13 (≈ 2.64 to 5.29 µM) |
| CN(C)[C@@H]1C(O)=C(C(N)=O)C(=O)[C@@]2(O)C(O)=C3C(=O)c4c(O)cccc4[C@@](C)(O)[C@H]3C[C@@H]12 [TETRACYCLINE] | < 0.2 |  | < 0.2 | < 0.2 | < 0.2 | > 25 | < 0.2 |
| CC(C)c1cc2c(cc1Br)[C@@]1(C)CCC[C@@](C)(C(=O)O)[C@@H]1C/C2=N\OCCNS(=O)(=O)c1ccc(Cl)s1 | 0.78 to 1.56 (≈ 1.23 to 2.47 µM) | inactive | 1.56 to 3.13 (≈ 2.47 to 4.95 µM) | 1.56 to 3.13 (≈ 2.47 to 4.95 µM) | 1.56 to 3.13 (≈ 2.47 to 4.95 µM) | 1.56 to 3.13 (≈ 2.47 to 4.95 µM) | 1.56 to 3.13 (≈ 2.47 to 4.95 µM) |
| CC(C)c1cc2c(cc1Br)[C@@]1(C)CCC[C@@](C)(C(=O)O)[C@@H]1C/C2=N\OCCNS(=O)(=O)C1CC1 |  | inactive |  | 6.25 to 12.5 (≈ 11.3 to 22.5 µM) |  |  |  |
